{
  "source": "patent EP1670820B1",
  "about": "“ANTIGENS FOR AN EAST COAST FEVER VACCINE” (International Livestock Research Institute ( ILRI), priority 2003, dated 2005)",
  "tested_on": "peptide pulsed autologous iSF",
  "assay": "51Chromium release assay: CTL lysis of peptide pulsed autologous iSF",
  "format": "cell-based, cattle",
  "details": "autologous iSF pulsed overnight with peptide; BW014 polyclonal CD8+ CTL line (FIG. 9)",
  "data": [
    {"sequence": "SLVCVLMKC [Tp2 peptide 76B]", "values": [
      {"measurement": "lysis of iSF pulsed with peptide", "value": "background levels of lysis"}
    ]}
  ]
}
